Laboratory results: PubChem BioAssay AID2060600 (Molecular Pharmacology Branch, DTP, NCI, 2025)

Test system: 996289-038-R-J1-PDC complex spheroid viability
Assay: Anticancer human tumor 996289-038-R-J1-PDC patient-derived colon adenocarcinoma cell line growth inhibition [CLK]
Details: for IC50: curve of first compound; for viability, T/C: stronger effect = lower value
In short: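 Multi-cell-type spheroids combined patient-derived tumor cells with HUVEC endothelial cells and human mesenchymal stem cells. Paired agents were dosed in half-log steps down from about clinical Cmax, or from 10 microM where Cmax was unknown.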

[1] = second compound 0.0316 µM, first compound 0.0316 µM
[2] = second compound 0.0316 µM, first compound 0.1 µM
[3] = second compound 0.0316 µM, first compound 0.316 µM
[4] = second compound 0.0316 µM, first compound 1 µM
[5] = second compound 0.0316 µM, first compound 3.16 µM
[6] = second compound 0.0316 µM, first compound 10 µM
[7] = second compound 0.1 µM, first compound 0.0316 µM
[8] = second compound 0.1 µM, first compound 0.1 µM
[9] = second compound 0.1 µM, first compound 0.316 µM
[10] = second compound 0.1 µM, first compound 1 µM
[11] = second compound 0.1 µM, first compound 3.16 µM
[12] = second compound 0.1 µM, first compound 10 µM
[13] = second compound 0.316 µM, first compound 0.0316 µM
[14] = second compound 0.316 µM, first compound 0.1 µM
[15] = second compound 0.316 µM, first compound 0.316 µM
[16] = second compound 0.316 µM, first compound 1 µM
[17] = second compound 0.316 µM, first compound 3.16 µM
[18] = second compound 0.316 µM, first compound 10 µM
[19] = second compound 1 µM, first compound 0.0316 µM
[20] = second compound 1 µM, first compound 0.1 µM
[21] = second compound 1 µM, first compound 0.316 µM
[22] = second compound 1 µM, first compound 1 µM
[23] = second compound 1 µM, first compound 3.16 µM
[24] = second compound 1 µM, first compound 10 µM
[25] = second compound 3.16 µM, first compound 0.0316 µM
[26] = second compound 3.16 µM, first compound 0.1 µM
[27] = second compound 3.16 µM, first compound 0.316 µM
[28] = second compound 3.16 µM, first compound 1 µM
[29] = second compound 3.16 µM, first compound 3.16 µM
[30] = second compound 3.16 µM, first compound 10 µM
[31] = second compound 10 µM, first compound 0.0316 µM
[32] = second compound 10 µM, first compound 0.1 µM
[33] = second compound 10 µM, first compound 0.316 µM
[34] = second compound 10 µM, first compound 1 µM
[35] = second compound 10 µM, first compound 3.16 µM
[36] = second compound 10 µM, first compound 10 µM
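Further: spheroids exposed to the agents for 7 days before readout.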

SMILES: C#Cc1c(F)ccc2cc(O)cc(-c3ncc4c(N5CC6CCC(C5)N6)nc(OCC56CCCN5CC(F)C6)nc4c3F)c12 (stereo not given) + CNC(=O)c1ccc(Nc2nc(OC3CCCC3)c3c(-c4ccc5nc(C)oc5c4)c[nH]c3n2)c(OC)c1
- IC50 (second compound 0.0316 µM): 1.82 µM
- IC50 (second compound 0.1 µM): 0.503 µM
- IC50 (second compound 0.316 µM): 0.0991 µM
- IC50 (second compound 1 µM): < 0.0316 µM
- IC50 (second compound 3.16 µM): < 0.0316 µM
- IC50 (second compound 10 µM): < 0.0316 µM
- viability, T/C [1]: 107%
- viability, T/C [2]: 93.2%
- viability, T/C [3]: 71%
- viability, T/C [4]: 62.4%
- viability, T/C [5]: 40%
- viability, T/C [6]: 29.3%
- viability, T/C [7]: 106%
- viability, T/C [8]: 77.1%
- viability, T/C [9]: 55.9%
- viability, T/C [10]: 42.4%
- viability, T/C [11]: 32.2%
- viability, T/C [12]: 30.5%
- viability, T/C [13]: 60.7%
- viability, T/C [14]: 50.4%
- viability, T/C [15]: 35.6%
- viability, T/C [16]: 28.3%
- viability, T/C [17]: 25.5%
- viability, T/C [18]: 22.4%
- viability, T/C [19]: 33.8%
- viability, T/C [20]: 26.5%
- viability, T/C [21]: 25.4%
- viability, T/C [22]: 21.5%
- viability, T/C [23]: 22.1%
- viability, T/C [24]: 20.6%
- viability, T/C [25]: 28.3%
- viability, T/C [26]: 24.3%
- viability, T/C [27]: 24.5%
- viability, T/C [28]: 21.4%
- viability, T/C [29]: 22.9%
- viability, T/C [30]: 17.8%
- viability, T/C [31]: 28.7%
- viability, T/C [32]: 23.1%
- viability, T/C [33]: 20.2%
- viability, T/C [34]: 22.3%
- viability, T/C [35]: 22.8%
- viability, T/C [36]: 17.9%

SMILES: C=C(F)C(=O)N1CCN(c2nc(OCC3CCCN3C)nc3c2CCN(c2cccc4cccc(Cl)c24)C3)CC1CC#N (stereo not given) + CNC(=O)c1ccc(Nc2nc(OC3CCCC3)c3c(-c4ccc5nc(C)oc5c4)c[nH]c3n2)c(OC)c1
- IC50 (second compound 0.0316 µM): 5.2 µM
- IC50 (second compound 0.1 µM): 4.82 µM
- IC50 (second compound 0.316 µM): 3.79 µM
- IC50 (second compound 1 µM): 2.28 µM
- IC50 (second compound 3.16 µM): 1.5 µM
- IC50 (second compound 10 µM): 1.4 µM
- viability, T/C [1]: 127%
- viability, T/C [2]: 129%
- viability, T/C [3]: 116%
- viability, T/C [4]: 121%
- viability, T/C [5]: 86.7%
- viability, T/C [6]: 1.33%
- viability, T/C [7]: 116%
- viability, T/C [8]: 115%
- viability, T/C [9]: 106%
- viability, T/C [10]: 107%
- viability, T/C [11]: 77.9%
- viability, T/C [12]: 1%
- viability, T/C [13]: 75.2%
- viability, T/C [14]: 72.2%
- viability, T/C [15]: 72.6%
- viability, T/C [16]: 75.7%
- viability, T/C [17]: 57.4%
- viability, T/C [18]: 2.02%
- viability, T/C [19]: 62.9%
- viability, T/C [20]: 62.9%
- viability, T/C [21]: 59.9%
- viability, T/C [22]: 64.7%
- viability, T/C [23]: 45.1%
- viability, T/C [24]: 0.61%
- viability, T/C [25]: 59.8%
- viability, T/C [26]: 59.4%
- viability, T/C [27]: 56.5%
- viability, T/C [28]: 56.8%
- viability, T/C [29]: 38.2%
- viability, T/C [30]: 1.01%
- viability, T/C [31]: 61.9%
- viability, T/C [32]: 59%
- viability, T/C [33]: 56.2%
- viability, T/C [34]: 57.2%
- viability, T/C [35]: 33.5%
- viability, T/C [36]: 0.31%

SMILES: C=CC(=O)N1CCN(c2nc(=O)n(-c3c(C)ccnc3C(C)C)c3nc(-c4c(O)cccc4F)c(F)cc23)C(C)C1 (stereo not given) + CNC(=O)c1ccc(Nc2nc(OC3CCCC3)c3c(-c4ccc5nc(C)oc5c4)c[nH]c3n2)c(OC)c1
- IC50 (second compound 0.0316 µM): > 10 µM
- IC50 (second compound 0.1 µM): > 10 µM
- IC50 (second compound 0.316 µM): > 10 µM
- IC50 (second compound 1 µM): > 10 µM
- IC50 (second compound 3.16 µM): > 10 µM
- IC50 (second compound 10 µM): > 10 µM
- viability, T/C [1]: 110%
- viability, T/C [2]: 105%
- viability, T/C [3]: 109%
- viability, T/C [4]: 121%
- viability, T/C [5]: 126%
- viability, T/C [6]: 121%
- viability, T/C [7]: 124%
- viability, T/C [8]: 109%
- viability, T/C [9]: 121%
- viability, T/C [10]: 112%
- viability, T/C [11]: 137%
- viability, T/C [12]: 123%
- viability, T/C [13]: 81%
- viability, T/C [14]: 76.5%
- viability, T/C [15]: 76.5%
- viability, T/C [16]: 89.1%
- viability, T/C [17]: 88.9%
- viability, T/C [18]: 82%
- viability, T/C [19]: 68.7%
- viability, T/C [20]: 63.5%
- viability, T/C [21]: 66.8%
- viability, T/C [22]: 68.3%
- viability, T/C [23]: 74.1%
- viability, T/C [24]: 68.7%
- viability, T/C [25]: 57.1%
- viability, T/C [26]: 59.5%
- viability, T/C [27]: 59%
- viability, T/C [28]: 61.7%
- viability, T/C [29]: 70.3%
- viability, T/C [30]: 59.2%
- viability, T/C [31]: 58.7%
- viability, T/C [32]: 59.9%
- viability, T/C [33]: 58%
- viability, T/C [34]: 64.9%
- viability, T/C [35]: 70.5%
- viability, T/C [36]: 56.8%

SMILES: CCCS(=O)(=O)Nc1ccc(F)c(C(=O)c2c[nH]c3ncc(-c4ccc(Cl)cc4)cc23)c1F + CNC(=O)c1ccc(Nc2nc(OC3CCCC3)c3c(-c4ccc5nc(C)oc5c4)c[nH]c3n2)c(OC)c1
- IC50 (second compound 0.0316 µM): > 10 µM
- IC50 (second compound 0.1 µM): > 10 µM
- IC50 (second compound 0.316 µM): 9.36 µM
- IC50 (second compound 1 µM): 5.68 µM
- IC50 (second compound 3.16 µM): 4.68 µM
- IC50 (second compound 10 µM): 4.51 µM
- viability, T/C [1]: 125%
- viability, T/C [2]: 105%
- viability, T/C [3]: 120%
- viability, T/C [4]: 131%
- viability, T/C [5]: 124%
- viability, T/C [6]: 83.4%
- viability, T/C [7]: 116%
- viability, T/C [8]: 133%
- viability, T/C [9]: 124%
- viability, T/C [10]: 118%
- viability, T/C [11]: 119%
- viability, T/C [12]: 76.7%
- viability, T/C [13]: 81.2%
- viability, T/C [14]: 84.5%
- viability, T/C [15]: 82.8%
- viability, T/C [16]: 84.8%
- viability, T/C [17]: 82.7%
- viability, T/C [18]: 48%
- viability, T/C [19]: 73.2%
- viability, T/C [20]: 70%
- viability, T/C [21]: 64.9%
- viability, T/C [22]: 70.6%
- viability, T/C [23]: 64.8%
- viability, T/C [24]: 35.6%
- viability, T/C [25]: 63.8%
- viability, T/C [26]: 67.5%
- viability, T/C [27]: 64.1%
- viability, T/C [28]: 68.1%
- viability, T/C [29]: 58.4%
- viability, T/C [30]: 31.8%
- viability, T/C [31]: 62.9%
- viability, T/C [32]: 60.2%
- viability, T/C [33]: 59.8%
- viability, T/C [34]: 66.9%
- viability, T/C [35]: 60.3%
- viability, T/C [36]: 26.1%

SMILES: COC1C=CCC(C)C(C)S(=O)(=O)NC(=O)c2ccc3c(c2)N(CC2CCC21)CC1(CCCc2cc(Cl)ccc21)CO3 (stereo not given) + CNC(=O)c1ccc(Nc2nc(OC3CCCC3)c3c(-c4ccc5nc(C)oc5c4)c[nH]c3n2)c(OC)c1
- IC50 (second compound 0.0316 µM): 6.74 µM
- IC50 (second compound 0.1 µM): 6.73 µM
- IC50 (second compound 0.316 µM): 2.94 µM
- IC50 (second compound 1 µM): 1.18 µM
- IC50 (second compound 3.16 µM): 0.466 µM
- IC50 (second compound 10 µM): 0.519 µM
- viability, T/C [1]: 131%
- viability, T/C [2]: 119%
- viability, T/C [3]: 109%
- viability, T/C [4]: 92.1%
- viability, T/C [5]: 74.6%
- viability, T/C [6]: 37.2%
- viability, T/C [7]: 124%
- viability, T/C [8]: 117%
- viability, T/C [9]: 109%
- viability, T/C [10]: 85.9%
- viability, T/C [11]: 72.2%
- viability, T/C [12]: 39.1%
- viability, T/C [13]: 91.1%
- viability, T/C [14]: 78.1%
- viability, T/C [15]: 74.3%
- viability, T/C [16]: 57.5%
- viability, T/C [17]: 52.2%
- viability, T/C [18]: 36.4%
- viability, T/C [19]: 71.3%
- viability, T/C [20]: 65.2%
- viability, T/C [21]: 58.8%
- viability, T/C [22]: 49.4%
- viability, T/C [23]: 45.6%
- viability, T/C [24]: 34.4%
- viability, T/C [25]: 70.1%
- viability, T/C [26]: 59%
- viability, T/C [27]: 52.2%
- viability, T/C [28]: 45.7%
- viability, T/C [29]: 40.4%
- viability, T/C [30]: 33.1%
- viability, T/C [31]: 59.3%
- viability, T/C [32]: 54.4%
- viability, T/C [33]: 53%
- viability, T/C [34]: 45.9%
- viability, T/C [35]: 43.2%
- viability, T/C [36]: 34%
